Experimental data as given in patent US20260183321A1, “TREATMENT OF CORONAVIRUS INFECTIONS WITH ANTIMICROBIAL PHOSPHOLIPID COMPOSITIONS” (NATIONAL JEWISH HEALTH, priority 2022, published 2026).

Experiments:
[1] = tested on: SARS-CoV-2; assay: cytopathic effect by SARS-CoV-2 in VeroE6 cells (histological images); format: cell-based; conditions: 72 hrs after infection, POPG 1000 μg/ml, PI 500 μg/ml, PC 2000 μg/ml
[2] = tested on: VeroE6 cells; assay: cell viability assays on VeroE6 cells; format: cell-based, African green monkey; conditions: 2 mg/ml
[3] = tested on: SARS-CoV-2; format: cell-based; conditions: 48 hrs; for reduction of SARS-CoV-2 mRNA expression: healthy control subjects (n=3), lipid 16 hrs before infection, 5 mg/ml POPG, 2 mg/ml PI
[4] = tested on: SARS-CoV-2; assay: SARS-CoV-2 replication by qRT-PCR in differentiated nasal epithelial cells from a patient with COPD; format: cell-based; conditions: 48 hrs, 5 mg/ml POPG, 2 mg/ml PI
[5] = target: T1, SARS-CoV-2 S1 ECD protein (Severe acute respiratory syndrome coronavirus 2, UniProt P0DTC2); assay: binding to SARS-CoV-2 S1 ECD protein
T1 construct: SARS-CoV-2 S1 ECD protein

[6] = tested on: primary human bronchial epithelial cells; assay: 3H-leucine protein synthesis and secretion in primary human bronchial epithelial cells in ALI cultures; format: cell-based; conditions: for pleiotropic inhibition of metabolism (3H-intracellular protein synthesis, 3H secreted protein): 64 h with 3H-leucine, 5 mg/mL POPG or 2 mg/ml PI in apical media; for cytotoxic effects on primary airway epithelial cells: cells from patients with COPD as worded in b103 (FIGS. 11A-11B)
Method: Bronchial epithelia cells were incubated for 64 h with 3H-leucine in either the presence, or absence of 5 mg/mL of POPG; or 2 mg/ml of PI in only the apical media. 3H-intracellular protein synthesis (FIG. 11A), and 3H secreted protein in apical media (FIG. 11B) are shown. […]

[7] = tested on: SARS-CoV-2; assay: quantitative plaque assay for SARS-CoV-2 in VeroE6 cells; format: cell-based; set-up: lowest concentration with significant reduction in viral load: unit not given here; conditions: for suppression of the viral burden elicited by SARS-CoV-2: MOI 0.01, 24 Hr after the initial infection, simultaneous treatment with virus plus lipid
Method: VeroE6 cells were infected with SARS-CoV-2 at an MOI=0.01 in either the absence of lipids, or presence of POPG, or PI, or POPC, at concentrations of 250 μg/ml-1000 μg/ml (SARS-CoV-2+POPG, SARS-CoV-2+PI) or the control lipid phosphatidylcholine (PC), at various concentrations (250 μg-1000 μg/ml) (SARS-CoV-2+PC). Cells were preincubated with lipids 30 mins before viral inoculation. Culture media was harvested at 24 hr and processed for quantitative plaque assay for SARS-CoV-2 (FIG. 1A) and for viral yield as a function of phospholipid concentration (FIG. 1). The data are shown as mean+/−SE for three independent experiments in log10 scale. is a graph of viral yield as a function of phospholipid concentration.
A sample holder containing 96 wells (3 plates) was provided and was plated with VeroE6 cells (a cell lineage isolated from kidney epithelial cells extracted from an African green monkey) at a concentration of 5×10^4 cells/well in 100 μl of medium. The medium utilized comprised Dulbecco's Modified Eagle Medium (DMEM), 5% fetal bovine serum (FCS), 1% L-glutamine, and 10,000 U/ml penicillin-streptomycin (PS). Here, it is noted that the antibiotics penicillin and streptomycin are commonly utilized to prevent bacterial contamination of cell cultures due to their effective combined action against gram-positive and gram-negative bacteria.
The wells were washed two times with calcium-free and magnesium-free phosphate buffered saline (PBS) (100 μl/well), and then an additional time with a culture medium consisting of DMEM, L-glutamine, 0.1% bovine serum albumin (BSA) and 10,000 U/ml PS.
The cells were then preincubated with lipids in the culture medium (100 μl/well) for 30-60 minutes at 37° C. Samples of SARS-CoV-2 virus were added at multiplicities of infection (MOI) of 0.01 and the virus was allowed to absorb for 2 hours at 37° C. […]
FIGS. 1A and 1B depicts the results obtained for quantitative plaque assay for SARS-CoV-2 (FIG. 1A) and for % viral yield as a function of phospholipid concentration (FIG. 1B).

[8] = tested on: SARS-CoV-2; assay: hamster model of SARS-CoV-2 infection, intranasal treatment; format: in vivo, Syrian hamsters

Row | Compound | state of infected cell cultures (cytopathic effect) [1] | toxicity on VeroE6 cells [2] | effect on SARS-CoV-2 replication ([3]; healthy control subjects, PC 10 mg/ml) | attenuation of SARS-CoV-2 replication [4] | binding to SARS-CoV-2 S1 ECD protein [5] | reduction of SARS-CoV-2 mRNA expression [3] | replication in differentiated nasal epithelial cells of severe asthmatics [3] | pleiotropic inhibition of metabolism (3H-intracellular protein synthesis, 3H secreted protein) [6] | cytotoxic effects on primary airway epithelial cells [6] | suppression of the viral burden elicited by SARS-CoV-2 [7] | SARS-CoV-2 replication in hamsters (plaque assays of pharyngeal swabs) ([8]; PI 2 mg/animal intranasal, days 1-3) | mean turbinate viral load ([8]; hamsters, 2 mg PI intranasal, after 24 hours, untreated group 2.4E+04) | % inhibition of viral load ([8]; hamsters, single dose of 2 mg PI, after 24 hours, versus untreated) | lowest concentration with significant reduction in viral load ([7]; 24 hr)
1 | phosphatidylcholine [PC, reference compound] | significant cytopathic effects | Neither POPG, PI or POPC elicited toxicity | did not affect SARS-CoV-2 replication | – | – | – | – | – | – | – | – | – | – | –
2 | CCCCCCCC/C=C\CCCCCCCC(=O)O[C@H](COC(=O)CCCCCCCCCCCCCCC)COP(=O)(O)OCC(O)CO (stereo partly shown) [POPG, palmitoyl-oleoyl-phosphatidylglycerol] | remained intact | Neither POPG, PI or POPC elicited toxicity | – | 80% | weak affinity and non-specific manner | 75% | inhibit replication | does not produce pleiotropic inhibition of metabolism | neither POPG nor PI had cytotoxic effects | 90% | – | – | – | –
3 | phosphatidylinositol [PI] | remained intact | Neither POPG, PI or POPC elicited toxicity | – | 85% | weak affinity and non-specific manner | 87% | inhibit replication | does not produce pleiotropic inhibition of metabolism | neither POPG nor PI had cytotoxic effects | 99% | inhibits SARS-CoV-2 replication | 9.3E+01 | 99.6% | ≥ 250
